20 compounds from ChEMBL document CHEMBL5331099, “Chemical scaffold recycling: Structure-guided conversion of an HIV integrase inhibitor into a potent influenza virus RNA-dependent RNA polymerase inhibitor designed to minimize resistance potential” (Eur J Med Chem, 2023) can be followed below.

A value given as a limit tells only on which side of the number the result lay.

Experiment [1] is described as follows: Inhibition of Influenza A virus A/California/04/2009 (H1N1) N-terminal his tagged domain of PA endonuclease expressed in Escherichia coli BL21 (DE3) cells preincubated with enzyme for 1 hr followed by RNA addition and measured after 90 mins by MALDI-FTICR-MS analysis.
A short description of experiment [2]: Binding affinity to Influenza A virus A/California/04/2009 (H1N1) wild type N-terminal his tagged domain of PA endonuclease expressed in Escherichia coli BL21 (DE3) cells assessed as dissociation constant by MST assay.

Usually IC50 stands for the concentration at which inhibition is half-maximal. The low end stands for inhibition by little substance, the high end for a need for much substance. As to `CC(C)(NC(=O)OCc1ccccc1)c1nc(C(=O)NCc2ccc(F)cc2)c(O)c(=O)[nH]1`, the IC50 in experiment [1] was > 20000 nM. The same measure, in the same setting: for `COc1cnccc1CCNC(=O)c1nc(C(C)(C)NC(=O)OCc2ccccc2)[nH]c(=O)c1O` the value was 1970 nM.

Turning to `COc1cnccc1CCNC(=O)c1nc(-c2cccc(C(F)(F)F)c2)[nH]c(=O)c1O`, the IC50 in experiment [1] is 4530 nM. This IC50 is about 2.3-fold higher than that of the compound before. Still for that read-out and setting: the same measure for `O=C1NCCc2cccc(c2)OCCCCOc2cccc(c2)-c2nc1c(O)c(=O)[nH]2`: > 20000 nM; for `COc1cnccc1CCNC(=O)c1nc(Cc2ccccc2C(F)(F)F)[nH]c(=O)c1O`: > 20000 nM. Regarding `O=C1NCCc2cccc(c2)OC/C=C\COc2cccc(c2)-c2nc1c(O)c(=O)[nH]2`, in experiment [1], the midpoint of inhibition, the IC50, lay at 4960 nM. With `COc1cnccc1CCNC(=O)c1nc(-c2ccccc2)[nH]c(=O)c1O`, half-maximal inhibition in experiment [1] (IC50) was put at 1220 nM. The same measure, in the same setting: the same measure for `COc1cnccc1CCNC(=O)c1nc(-c2ccc(C(F)(F)F)cc2)[nH]c(=O)c1O`: > 20000 nM; for `COc1cnccc1CCNC(=O)c1nc(-c2ccccc2F)[nH]c(=O)c1O`: 820 nM; for `Cc1nnc(C(=O)NC(C)(C)c2nc(C(=O)NCc3ccc(F)cc3)c(O)c(=O)n2C)o1` [RALTEGRAVIR]: > 20000 nM. Still for that read-out and setting: the same measure for `CC(C)(NC(=O)OCc1ccccc1)c1nc(O)c(O)c(C(=O)NCCc2ccc(F)cc2)n1`: 6450 nM.

The compound `O=C1NCCc2cccc(c2)OC/C=C/COc2cccc(c2)-c2nc1c(O)c(=O)[nH]2` came in with an IC50 in experiment [1] of 12500 nM.

The term Kd denotes the free concentration of one partner at which half of the binding sites on the other are occupied at equilibrium, for simple one-to-one binding. With `Nc1ncnc2c1ncn2CCNC(=O)c1nc(-c2ccccc2C(F)(F)F)[nH]c(=O)c1O`, the Kd in experiment [2] worked out at 18 nM. For the same compound, 290 nM corresponded to half-maximal inhibition in experiment [1] (IC50). Consider `COc1cnccc1CCNC(=O)c1nc(-c2ccccc2C)[nH]c(=O)c1O`, for which the IC50 in experiment [1] came to 390 nM. In other words, the sub-micromolar range. Same read-out and setting: the same measure for `COc1cc(CCNC(=O)c2nc(-c3ccccc3C(F)(F)F)[nH]c(=O)c2O)ccc1O`: 270 nM. On the same count and under the same terms, the same measure for `COc1cc(CCNC(=O)c2nc(C(C)(C)NC(=O)OCc3ccccc3)[nH]c(=O)c2O)ccc1O`: 620 nM; for `CC(C)(NC(=O)OCc1ccccc1)c1nc(C(=O)NCCn2cnc3c(N)ncnc32)c(O)c(=O)[nH]1`: 1620 nM.

For the compound `COc1cnccc1CCNC(=O)c1nc(-c2c(F)cccc2F)[nH]c(=O)c1O`, the IC50 in experiment [1] amounted to 1110 nM. Regarding `COc1cnccc1CCNC(=O)c1nc(-c2ccccc2C(F)(F)F)[nH]c(=O)c1O`, in experiment [2], the Kd is 54 nM. The compound also returned an IC50 in experiment [1] of 420 nM. Taken in the same sequence, the figures for `O=C1c2c(O)c(=O)ccn2N([C@@H]2c3ccccc3SCc3c2ccc(F)c3F)C2COCCN12` (stereo partly drawn) were 6 nM and 50 nM.
